A value given as a limit tells only on which side of the number the result lay.

The term melting point denotes the temperature, or range, at which the solid turns liquid. Take `COc1cc([N+](=O)[O-])c(C(=O)c2ccccc2)cc1O`: the melting point is 154 to 156 °C.

Turning to `N#CC=C(c1ccccc1C(F)(F)F)c1ccccc1C(F)(F)F`, the melting point fell in the range of 65 to 68 °C.

`COc1ccc(OCc2ccccc2)c2c1CN(Nc1ccncc1)CC2` returned a melting point of 151 to 152 °C.

Take `CCCS(=O)c1sc(C(N)=O)c2c1-c1c(cnn1CC)CC2` (stereo unspecified): the melting point was in the range of 151 to 152 °C.

On to `Cn1cc(-c2ccc(C34CCCN(CC3)C4)cn2)cn1` (racemic), for which the melting point was in the range of 138 to 140 °C.

For `CC1(C)CC(=O)c2cc3c(cc2O1)OCCO3`, the melting point is 118 to 119 °C.

In turn, `Nc1cccnc1Nc1ccccc1C(=O)c1cccc(F)c1` showed a melting point of 135 to 137 °C.

The compound `CSc1ccc(Nc2cscc2C#N)c([N+](=O)[O-])c1` returned a melting point of 167 to 169 °C.

For `CCSc1ccc(CC(=O)NC(NC(=NC#N)Nc2cccc3ncccc23)C(C)(C)C)cc1` (stereo unspecified), the melting point lay within 189 to 190 °C.

For the compound `CC(=O)N1CCSc2ccccc2C1`, the melting point fell in the range of 69 to 70 °C.

`CCS(=O)(=O)CC(=O)c1cc(C(C)(C)C)c(O)c(C(C)(C)C)c1` displayed a melting point of 120 °C.

In turn, `CCC(C)(C)Nc1c(NCc2ccccn2)c(=O)c1=O` returned a melting point of 192 °C.

As to `CCOC(=O)NN=Cc1ccc2ccccc2n1`, the melting point is 163 to 165 °C.

Compound `COC(=O)c1cnnc2ccccc12` returned a melting point of 57 to 58 °C.

For `O=S(=O)(Oc1ccc(-c2cc3ccc(OS(=O)(=O)c4ccccc4)cc3s2)cc1)c1ccccc1`, the melting point was 138 to 139 °C.

In turn, `Cc1ccc(C2OC(CO)C(O)C(O)C2O)cc1Cc1ccc(-c2ccc(F)nc2)s1` (stereo unspecified) gave a melting point of 130 to 132 °C.

For `CN(C)C(=O)NCc1cccc2c1C(=O)N(C1CCC(=O)NC1=O)C2=O` (stereo unspecified), the melting point is 143 to 145 °C.

`O=S1CCN(CC2CN=C(c3cc4cccc(NS(=O)(=O)c5ccccn5)c4[nH]3)S2)CC1` (stereo unspecified): the melting point was found to be 270 °C.

Take `O=c1nc(Cl)cc(-c2ccccc2)n1-c1ccccc1`: the melting point lay within 141 to 143 °C.

In turn, `COC(=O)c1cccc2oc(-c3ccccc3O)nc12` displayed a melting point of 134 to 135 °C.

Regarding `Nc1nc2ccccc2c2c1nc1n2CCCN1`, the melting point is more than 250 °C.

For the compound `COc1cc(Br)ccc1OC(=O)c1ccccc1`, the melting point was 73 to 75 °C.

The compound `CN(C)C=CC(=O)c1c(-c2ccccc2Cl)nc2occn12` came in with a melting point of 187 to 189 °C.

With `O=c1oc(=O)n(Cc2cccs2)c2ccccc12`, the melting point lay within 137 to 140 °C.

`CCOC(=O)COc1ccc(/C=C/c2nc3c(c(=O)n(CC)c(=O)n3CC)n2C)cc1` came in with a melting point of 192 °C.

On to `CC(=O)Oc1cc(OCC(=O)c2ccc3c(c2)C(C)(C)CCC3(C)C)ccc1C(=O)OCc1ccccc1`, for which the melting point was in the range of 137 to 138 °C.

`COc1cc(-c2cncn2-c2ccc(S(C)(=O)=O)cc2)ccc1C`: the melting point was in the range of 174 to 175 °C.

The compound `COc1cccc(OC)c1S(=O)(=O)OCC(=NNc1ccccc1)c1ccccc1` displayed a melting point of 168 °C.

In turn, `CCCCCCCCCCCCCCCC(=O)NCCCN1CCCCC1C` (stereo unspecified) yielded a melting point of 48 to 50 °C.

The compound `Clc1ccc(C(=Cc2ccc(Cl)cc2Cl)CBr)cc1` registered a melting point of 128 °C.

In turn, `Nc1ccc(Nc2c(NCc3ccccc3)cc(C(=O)O)cc2S(=O)(=O)Nc2ccccc2N)cc1` registered a melting point of 225 °C.

In turn, `O=C(NCc1ccc([N+](=O)[O-])cn1)C(c1ccccc1)c1ccccc1` showed a melting point of 160 to 164 °C.

As to `CCCCCCCCCCNC(=O)CCCO`, the melting point was 74 to 75 °C.

`CCCCC1c2ccccc2-c2ccccc2N1S(=O)(=O)c1ccc(O)cc1` (stereo unspecified): the melting point was in the range of 149 to 151 °C.

Compound `COc1ccc2cc(NC(C)=O)c3ccc(C)cc3c2c1OC` gave a melting point of 190 to 192 °C.

Take `NC(=O)c1c(N)nn(-c2ccccc2)c1N`: the melting point lay within 182 to 183 °C.

The values are drawn from a melting point compilation (Tetko et al.; mined from patent text by program, amines drawn as free bases though some values may be those of a salt).
